Reference: patent US8652799B2, “Method of detecting bioactive molecules in a fluid sample” (priority 2008, dated 2014)
Where two headings read alike, the source gives them in different places.

How the values were obtained:
Assay type in all cases: cell-based
Chlorella vulgaris [1] = tested on: Chlorella vulgaris
Description: The algae concentration was 5×10^6 cells/mL (100 μL of algae within 2 mL of aqueous solution (i.e. distilled water)) containing the substance to detect at indicated concentrations. For each substances, 5 concentrations in triplicates were tested. The TOXSTAT™ software was used to calculate from inhibition values and standard deviations obtained, the maximum concentration without observable effect and the minimal concentration with observable effects. The threshold was calculated with the following formula: (maximum concentration without observable effect x minimal concentration with observable effects)^1/2 (See Table 2 below). The temperature was controlled by a thermostatic bath.
(§1) The detection threshold was obtained with the geometric mean. It was calculated with the following formula: Detection threshold=(CSEO×CMEO)^1/2 where
(§2) CMEO=minimal concentration resulting in a detectable inhibition of the algae efficacy.
(§3) CSEO and CMEO were estimated by a variance analysis ANNOVA™ followed by a Dunnett multiple comparison by comparing the mean efficacy of each tested concentration with the control mean. Calculations were performed with TOXSTAT™ (Version 3.5).

Chlorella vulgaris [2] = conditions: for Inhibition: 0.5 ppm
Description: (§4) A Chlorella vulgaris culture was prepared as described in Example 1 above. As indicated in Example 1, the algae were reactivated before testing under ambient light and at room temperature during 90 minutes.
The formulation was then incubated under ambient light at 35° C. and at neutral pH with cadmium, copper, chromium, zinc, nickel, or lead, at indicated concentrations at incubation times varying between 15 minutes and 120 minutes. (FIGS. 9 to 12). The formulations were tested without additives or with 1 ppm cadmium, 0.1 ppm copper or 0.25 ppm copper as additive. The cellular concentration was 2.5×10^6 cells/mL (50 μL of algae within 2 mL of metal containing aqueous solution (i.e. distilled water)). Testing was performed in triplicates. The fluorescence emitted by each formulation was then measured with Luminotox™, a fluorometer that measures photosynthetic activity.

Chlorella vulgaris [3] = test: Detection of lead with Chlorella vulgaris with single additives or additive mixtures
Description: as §4
The formulation was then incubated under ambient light at 35° C. and at neutral pH with lead, at indicated concentrations and at incubation times varying between 15 minutes and 120 minutes (FIGS. 13 to 16). The formulations were tested with or without additives used as single additives (Cd 1 ppm, Cu 0.1 ppm and Cu 0.25 ppm) or mixes of additives (Cu 0.1 ppm+Cd 0.5 ppm; Cu 0.1 ppm+Cd 1 ppm; Cu 0.25 ppm+Cd 1 ppm). The cellular concentration was 2.5×10^6 cells/mL (50 μL of algae within 2 mL of lead containing aqueous solution (i.e. distilled water) with or without additives). Testing was performed in triplicates. The fluorescence emitted by each formulation was then measured with Luminotox™ a fluorometer that measures photosynthetic activity.

Anabaena sp. = test: Detection of bioactive molecules with Anabaena sp.: inhibition of photosynthetic fluorescence (Luminotox); conditions: 1 ppm, neutral pH; for inhibition at 1 ppm: 10 min
Description: The photosynthetic efficiency is determined with the following formula (F2−F1)/F2. Any molecule affecting directly or indirectly the photosystems modify either F1 or F2 which modification necessarily decreases the photosynthetic efficiency. The inhibition curve of a particular molecule is determined by calculating the activity of the photosystems in the absence of the molecule and in the presence of the molecule and comparing both efficiency as follows as described in Conrad 1993:
Without Inhibitor (wi): efficiency(wi)=(F2(wi)−F1(wi)/F2(wi) With Inhibitor: Relative photosynthetic efficiency(sample)=(F2(sample)−F1(sample))/F2(wi) Percentage Efficiency: efficiency (%)=(efficiency(sample)×100)/efficiency(wi) Percentage Inhibition: Inhibition (%)=100−efficiency (%)
An Anabaena sp. culture was prepared as described in Example 3 above. As indicated in Example 3, the cyanobacteria were reactivated before testing under ambient light and at room temperature during 60 minutes.
The culture was then incubated with bioactive molecules listed in Table 1 below at concentrations of 1 ppm (except for atrazine which was used at a concentration of 1 ppb) for 10 minutes under ambient light followed by 10 minutes under green light and neutral pH. The cellular concentration was 1.0×10^7 cells/mL (100 μL of cyanobacteria within 2 mL of bioactive agent containing aqueous solution (i.e. distilled water)). Testing was performed in triplicates. The fluorescence emitted by each formulation was then measured with Luminotox™ a fluorometer that measures photosynthetic activity.

Dunaliella tertiolecta [4] = conditions: 15 min. green light exposition at room temperature
Description: as §1, §2, §3
(§5) A Dunaliella tertiolecta culture was prepared as described in Example 2 above. As indicated in Example 2, the algae were reactivated before testing under ambient light and at room temperature during 45 minutes.
The algae formulations were then incubated for 15 minutes with water containing one of the various contaminants listed in Table 2 below at neutral pH under green light and at room temperature. The algae concentration was 350 000 cells/mL (500 μL of algae within 2 mL of aqueous solution (i.e. distilled water) containing substance to detect at indicated concentrations). For each substances, 5 concentrations in triplicates were tested. The TOXSTAT™ software was used to calculate from inhibition values and standard deviations obtained, the maximum concentration without observable effect and the minimal concentration with observable effects (See Table 2 below). The temperature was controlled by a thermostatic bath. Tests were performed in triplicates. The fluorescence emitted by each formulation was then measured with Luminotox™, a fluorometer that measures photosynthetic activity and detection threshold determined as described in the Example above.

Chlorella vulgaris [5] = test: Stability of F2 fluorescence of Chlorella vulgaris incubated with additives
Description: F2 fluorescence levels produced by Chlorella vulgaris prepared as described in Example 1 above was measured after incubation with additives tested above, namely cadmium (0.5 ppm), cadmium (1 ppm), copper (0.1 ppm) and copper (0.25 ppm). As may be seen in FIG. 8, F2 fluorescence was stable after up to 120 minutes of incubation for each of these additives.

Chlorella vulgaris [6] = test: Effect of pH on detection of ammoniacal nitrogen with Chlorella vulgaris; conditions: for Concentration of NH3 at which 20% inhibition was achieved: 10 min green light, room temperature
Description: A Chlorella vulgaris culture was prepared as described in Example 1 above. As indicated above, the algae were reactivated before testing during 90 minutes under ambient light and at room temperature.
The culture was then incubated with ammoniacal nitrogen for 10 minutes under green light and at room temperature. The desired pH was achieved by adding NaOH to a glycine 20 mM buffer. The cellular concentration of the algae was 5×10^6 cells/mL of solution (100 μL algae in 2 mL of ammoniacal nitrogen containing aqueous solution (i.e. distilled water)). Testing was performed in triplicates. The fluorescence emitted by each formulation was then measured with Luminotox™, a fluorometer that measures photosynthetic activity. Although the Luminotox™ was used in Examples presented herein, any fluorometer able to measure […] can be used in accordance with the present invention.

Chlorella vulgaris [7] = test: Inhibition of fluorescence emission of Chlorella vulgaris incubated at 35° C.; conditions: 15 minutes
Description: The present invention also concerns a method for ammonia nitrogen detection comprising changing algal cell permeability. This compound is detected at 100 ppm at neutral pH but the increment of pH up to 11 decreases the threshold to 1 ppm. Algal permeability can also be modified by increasing the incubation temperature of the assay. For example, fluorescence emission is inhibited in 15 minutes by copper ions, tetracycline and progesterone if Chlorella vulgaris is incubated at 35° C., while at room temperature the detection of these compounds in 15 minutes was possible when these compounds are present at higher concentrations. Chlorella vulgaris is a freshwater alga and is used for freshwater monitoring while Dunaliella tertiolecta is used of for marine water monitoring.

Dunaliella tertiolecta [8] = test: Progesterone detection with Dunaliella tertiolecta, green light versus white light then green light; conditions: 0.25 h, 15 min green light only, 350 000 cells/mL, read-out: Maximum percentage inhibition
Description: as §5
The formulation was then incubated with progesterone at concentrations of 0; 0.05; […] or 1 ppm for 15 minutes under green light only or for 15 minutes under ambient light followed by 5 to 35 minutes under green light. The cellular concentration was 350 000 cells/mL (500 μL of algae within 2 mL of progesterone containing aqueous solution (i.e. distilled water)). Testing was performed in triplicates. The fluorescence emitted by each formulation was then measured with Luminotox™, a fluorometer that measures photosynthetic activity.

[9] = 10-15 min. exposition to ambiant light at 35° C., neutral pH (pH 7), 5×10^6 cells/mL
[10] = 1 ppm, 60 minutes of incubation, without additive
[11] = 10 min ambient light followed by 10 min green light
[12] = 10 min ambient light, 1.0×10^7 cells/mL
[13] = 10 min ambient light followed by 10 min green light, read-out: Inhibition obtained at 1 ppm (followed by 10 min green light)
[14] = 10 min ambient light, 1.0×10^7 cells/mL, read-out: Inhibition obtained at 1 ppm (10 min ambiant light)
[15] = neutral pH (pH 7), 350 000 cells/mL

## [Pb] [Pb, Lead]
Chlorella vulgaris [1]; [9]
  Detection threshold: <0.5 ppm
Chlorella vulgaris [2]; [10]
  Detection: detected although weakly
Chlorella vulgaris [3]; 15 minutes of incubation, with mixtures of additives
  Concentration of lead detected: 1 ppm
Chlorella vulgaris [3]; 30 minutes of incubation, mixture Cu 0.1 ppm+Cd 1 ppm
  Concentration of lead detected: 0.1 ppm
Chlorella vulgaris [3]; 60 minutes of incubation, all additive mixtures
  Concentration of lead whose detection was increased: ≥ 0.1 ppm
Chlorella vulgaris [3]; 120 minutes of incubation, additive mixtures Cu 0.1 ppm+Cd 0.5 ppm and Cu 0.25 ppm+Cd 1 ppm
  Concentration of lead detected: 0.01 ppm

## CNC(=O)O/N=C/C(C)(C)SC [aldicarbe]
Anabaena sp.; [11]
  Inhibition obtained at 1 ppm (followed by 10 min green light): 30%
Anabaena sp.; [12]
  Inhibition obtained at 1 ppm (10 min ambiant light): 0%

## CCc1cccc(C)c1N(C(=O)CCl)C(C)COC (stereo not shown) [metolachlor]
Anabaena sp.; [13]
  inhibition at 1 ppm: 22%
Anabaena sp.; [14]
  inhibition at 1 ppm: 0%

## [Cr] [Cr, Chrome]
Chlorella vulgaris [2]; 0.1 ppm, 60 minutes of incubation, without additive
  Detection: detected although weakly

## O=C(O)CNCP(=O)(O)O [glyphosate]
Anabaena sp.; [13]
  inhibition at 1 ppm: 7%
Anabaena sp.; [14]
  inhibition at 1 ppm: 0%
Chlorella vulgaris [1]; [9]
  Detection threshold: 100 ppm
Dunaliella tertiolecta [4]; [15]
  Detection threshold: 50 ppm

## Mercury [Hg]
Chlorella vulgaris [1]; [9]
  Detection threshold: 0.22 ppm

## [Cd] [Cd, Cadmium]
Chlorella vulgaris [1]; [9]
  Detection threshold: 0.3 ppm
Chlorella vulgaris [2]; 1 ppm alone, 15 minutes of incubation
  Detection: not detected
Chlorella vulgaris [2]; [10]
  Detection: detected although weakly
Chlorella vulgaris [5]; 0.5 ppm, up to 120 minutes of incubation
  F2 fluorescence over time: stable
Chlorella vulgaris [5]; 1 ppm, after 120 minutes of incubation
  F2 fluorescence over time: decrease of fluorescence

## cyanure
Anabaena sp.; [11]
  Inhibition obtained at 1 ppm (followed by 10 min green light): 16%
Anabaena sp.; [12]
  Inhibition obtained at 1 ppm (10 min ambiant light): 0%
Chlorella vulgaris [1]; [9]
  Detection threshold: 0.16 ppm

## COP(=O)(OC)O/C(C)=C/C(=O)N(C)C [dicrotophos]
Anabaena sp.; [13]
  inhibition at 1 ppm: 17%
Anabaena sp.; [14]
  inhibition at 1 ppm: 2%
Dunaliella tertiolecta [4]; [15]
  Detection threshold: 235 ppm

## Ammonia nitrogen
Chlorella vulgaris [1]; pH 11, 10-15 min. exposition to ambiant light at 35° C.
  Detection threshold: 1 ppm at pH 11
Chlorella vulgaris [1]; pH 11, 10-15 min. green light exposition at room temperature
  Detection threshold: 1 ppm at pH 11
Dunaliella tertiolecta [4]; pH 11
  Detection threshold: 1 ppm at pH 11
Chlorella vulgaris [6]; neutral pH
  Concentration at which the compound is detected: 100 ppm
Chlorella vulgaris [6]; pH 7
  Concentration of NH3 at which 20% inhibition was achieved: 100 ppm
Chlorella vulgaris [6]; pH 9
  Concentration of NH3 at which 20% inhibition was achieved: 5 ppm
Chlorella vulgaris [6]; pH 11
  Concentration of NH3 at which 20% inhibition was achieved: lower than 2 ppm
Chlorella vulgaris [6]; pH 12
  Concentration of NH3 at which 20% inhibition was achieved: lower than 2 ppm
Chlorella vulgaris [6]; pH up to 11
  Detection threshold: 1 ppm

## CC(C)N1C(=O)c2ccccc2NS1(=O)=O [bentazone]
Anabaena sp.; [13]
  inhibition at 1 ppm: 28%
Anabaena sp.; [14]
  inhibition at 1 ppm: 0%

## [Cu] [Cu, Copper]
Chlorella vulgaris [1]; [9]
  Detection threshold: 0.25 ppm
Chlorella vulgaris [2]; 0.25 ppm, 60 minutes of incubation, without additives
  Detection: not detected
Chlorella vulgaris [2]; 15 minutes of incubation, cadmium 1 ppm as additive
  Inhibition: 30%
Chlorella vulgaris [2]; 15 minutes of incubation, without additive, ambient light 35° C.
  Inhibition: 15%
Chlorella vulgaris [5]; 0.1 ppm, up to 120 minutes of incubation
  F2 fluorescence over time: stable
Chlorella vulgaris [5]; 0.25 ppm, up to 120 minutes of incubation
  F2 fluorescence over time: stable
Chlorella vulgaris [7]
  Fluorescence emission: inhibited

## CCOP(=S)(OCC)Oc1nc(Cl)c(Cl)cc1Cl [chlorpyrifos]
Anabaena sp.; [13]
  inhibition at 1 ppm: 10%
Anabaena sp.; [14]
  inhibition at 1 ppm: 0%
Chlorella vulgaris [1]; [9]
  Detection threshold: 1 ppm
Dunaliella tertiolecta [4]; [15]
  Detection threshold: 1 ppm

## CN(C)C(=O)Nc1ccc(Cl)c(Cl)c1 [Diuron]
Chlorella vulgaris [1]; [9]
  Detection threshold: 0.006 ppm
Chlorella vulgaris [1]; 10-15 min. green light exposition at room temperature, neutral pH (pH 7), 5×10^6 cells/mL
  Detection threshold: <0.0005 ppm
Chlorella vulgaris [1]; 10-15 min. green light exposition at room temperature, neutral pH (pH 7), 5×10^6 cells/mL, listed as diuron
  Detection threshold: lower than 0.0005 ppm
Dunaliella tertiolecta [4]; [15]
  Detection threshold: 0.002 ppm

## CC(=O)[C@H]1CC[C@H]2[C@@H]3CCC4=CC(=O)CC[C@]4(C)[C@H]3CC[C@]12C [progesterone]
Dunaliella tertiolecta [8]
  inhibition at 1 ppm: 40%
Chlorella vulgaris [7]
  Fluorescence emission: inhibited

## CCOC(=O)CC(SP(=S)(OC)OC)C(=O)OCC (stereo not shown) [malathion]
Anabaena sp.; [13]
  inhibition at 1 ppm: 17%
Anabaena sp.; [14]
  inhibition at 1 ppm: 0%
Dunaliella tertiolecta [4]; [15]
  Detection threshold: 50 ppm

## [Ni] [nickel]
Chlorella vulgaris [2]; 1 ppm, 120 minutes of incubation
  Detection: weakly detected

## gramicidine
Anabaena sp.; [11]
  Inhibition obtained at 1 ppm (followed by 10 min green light): 15%
Anabaena sp.; [12]
  Inhibition obtained at 1 ppm (10 min ambiant light): 0%
